#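 Growth conditions: 96-well plates. Treatment: test compound, 48 hours, 5 concentrations. Analysis: linear interpolation between bracketing concentrations; unreached endpoints set to highest concentration. GI50 is the concentration that inhibits growth by half. The concentration for full growth arrest is given as TGI.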
# Key:
# Assay in all cases: NCI tumour cell line growth inhibition, 48 h
# SF-295 CNS = test system: SF-295 CNS
# SK-MEL-5 melanoma = test system: SK-MEL-5 melanoma
# 786-0 renal = test system: 786-0 renal
# SN12C renal = test system: SN12C renal
# COLO 205 colon = test system: COLO 205 colon
# MDA-MB-231 breast = test system: MDA-MB-231 breast
# NCI-H522 lung = test system: NCI-H522 lung
# CAKI-1 renal = test system: CAKI-1 renal
# NCI-H460 lung = test system: NCI-H460 lung
# MDA-MB-435 = test system: MDA-MB-435
# OVCAR-5 ovarian = test system: OVCAR-5 ovarian
# SK-OV-3 ovarian = test system: SK-OV-3 ovarian
# HCT-116 colon = test system: HCT-116 colon
# HL-60(TB) leukemia = test system: HL-60(TB) leukemia
# OVCAR-8 ovarian = test system: OVCAR-8 ovarian
# SNB-19 CNS = test system: SNB-19 CNS
# SF-539 CNS = test system: SF-539 CNS
# MCF7 breast = test system: MCF7 breast
# SK-MEL-2 melanoma = test system: SK-MEL-2 melanoma
# IGROV1 ovarian = test system: IGROV1 ovarian
# PC-3 prostate = test system: PC-3 prostate
# UACC-257 melanoma = test system: UACC-257 melanoma
# HOP-62 NSCLC = test system: HOP-62 NSCLC
# KM12 colon = test system: KM12 colon
# NCI-H226 lung = test system: NCI-H226 lung
# TK-10 renal = test system: TK-10 renal
# A498 renal = test system: A498 renal
# HCC-2998 colon = test system: HCC-2998 colon
structure (smiles),measurement,setting,value
Clc1ccc2c(c1)C(N1CCNCC1)=Nc1ccccc1O2,GI50,SF-295 CNS,1.92 µM
same,TGI,SF-295 CNS,3.82 µM
same,GI50,SK-MEL-5 melanoma,1.39 µM
same,TGI,SK-MEL-5 melanoma,2.69 µM
same,GI50,786-0 renal,1.49 µM
same,TGI,786-0 renal,3.27 µM
same,GI50,SN12C renal,2.87 µM
same,TGI,SN12C renal,13.6 µM
same,GI50,COLO 205 colon,1.36 µM
same,TGI,COLO 205 colon,2.67 µM
same,GI50,MDA-MB-231 breast,1.79 µM
same,TGI,MDA-MB-231 breast,4.02 µM
same,GI50,NCI-H522 lung,1.82 µM
same,TGI,NCI-H522 lung,3.87 µM
same,GI50,CAKI-1 renal,2.2 µM
same,TGI,CAKI-1 renal,7.83 µM
same,GI50,NCI-H460 lung,2.46 µM
same,TGI,NCI-H460 lung,5.41 µM
same,GI50,MDA-MB-435,1.65 µM
same,TGI,MDA-MB-435,3.11 µM
same,GI50,OVCAR-5 ovarian,3.28 µM
same,TGI,OVCAR-5 ovarian,12.9 µM
same,GI50,SK-OV-3 ovarian,1.94 µM
same,TGI,SK-OV-3 ovarian,4.5 µM
same,GI50,HCT-116 colon,1.42 µM
same,TGI,HCT-116 colon,2.8 µM
same,GI50,HL-60(TB) leukemia,1.95 µM
same,TGI,HL-60(TB) leukemia,3.86 µM
same,GI50,OVCAR-8 ovarian,1.86 µM
same,TGI,OVCAR-8 ovarian,4 µM
same,GI50,SNB-19 CNS,2.97 µM
same,TGI,SNB-19 CNS,12.8 µM
same,GI50,SF-539 CNS,1.75 µM
same,TGI,SF-539 CNS,3.36 µM
same,GI50,MCF7 breast,1.62 µM
same,TGI,MCF7 breast,3.05 µM
same,GI50,SK-MEL-2 melanoma,1.77 µM
same,TGI,SK-MEL-2 melanoma,3.4 µM
same,GI50,IGROV1 ovarian,2.89 µM
same,TGI,IGROV1 ovarian,11.1 µM
same,GI50,PC-3 prostate,1.54 µM
same,TGI,PC-3 prostate,8.74 µM
same,GI50,UACC-257 melanoma,1.5 µM
same,TGI,UACC-257 melanoma,2.87 µM
same,GI50,HOP-62 NSCLC,2.01 µM
same,TGI,HOP-62 NSCLC,4.66 µM
same,GI50,KM12 colon,1.73 µM
same,TGI,KM12 colon,3.28 µM
same,GI50,NCI-H226 lung,2.57 µM
same,TGI,NCI-H226 lung,11.9 µM
same,GI50,TK-10 renal,2.04 µM
same,TGI,TK-10 renal,4.72 µM
same,GI50,A498 renal,3.1 µM
same,TGI,A498 renal,5.46 µM
same,GI50,HCC-2998 colon,1.58 µM
same,TGI,HCC-2998 colon,2.92 µM
